Measurements published in patent US20260250318A1, “COMPOSITIONS AND METHODS FOR CROSSING THE BLOOD BRAIN BARRIER” (VOYAGER THERAPEUTICS, INC., priority 2022, published 2026).

What was measured:
brain = experiment: Matured TTM-001 and TTM-002 variants, NGS enrichment in mouse brain; format: in vivo, mice; conditions: relative to AAV9 control
[1] = tested on: brains, heart, liver, muscle, and DRG of the NHPs; experiment: Maturation of TTM-001 and TTM-002 capsids, NGS enrichment in NHP tissues; format: in vivo; conditions: relative to AAV9 control
How it was run: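 Variants carry mutations within and flanking the loop IV peptide insert: positions 450–466 were triplet-randomized, while positions 449–466 received low-frequency point mutations. The combined pool went into two NHPs, and each peptide was scored by NGS enrichment ratio against AAV9.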

[2] = NGS fold-enrichment, brain of mice
[3] = NGS fold-enrichment, DRG of NHPs
[4] = NGS fold-enrichment, RNA, brain of NHPs
[5] = NGS fold-enrichment, heart of NHPs
[6] = NGS fold-enrichment, liver DNA of NHPs
[7] = NGS fold-enrichment, liver RNA of NHPs
[8] = NGS fold-enrichment, muscle of NHPs
[9] = NGS fold-enrichment, mouse brain
[10] = NGS fold-enrichment of RNA, NHP brain
[11] = NGS fold-enrichment, NHP liver DNA
[12] = NGS fold-enrichment, NHP liver RNA
[13] = NGS fold-enrichment, NHP muscle
[14] = NGS fold-enrichment of matured AAV capsid variants, NHP brain, RNA

Sequence | Fold Enrichment relative to AAV9, Brain (Mouse) (brain; [2]) [fold] | Fold Enrichment relative to AAV9, DRG (NHP) [1, 3] [fold] | Fold Enrichment relative to AAV9, Brain (NHP) [1, 4] [fold] | Fold Enrichment relative to AAV9, Heart (NHP) [1, 5] [fold] | Fold Enrichment relative to AAV9, Liver DNA (NHP) [1, 6] [fold] | Fold Enrichment relative to AAV9, Liver RNA (NHP) [1, 7] [fold] | Fold Enrichment relative to AAV9, Muscle (NHP) [1, 8] [fold] | Fold Enrichment relative to AAV9, Brain (Mouse) (brain; [9]) [fold] | Fold Enrichment relative to AAV9, Brain (NHP) [1, 10] [fold] | Fold Enrichment relative to AAV9, DRG (NHP) ([1]; NGS fold-enrichment, NHP DRG) [fold] | Fold Enrichment relative to AAV9, Heart (NHP) ([1]; NGS fold-enrichment, NHP heart) [fold] | Fold Enrichment relative to AAV9, Liver DNA (NHP) [1, 11] [fold] | Fold Enrichment relative to AAV9, Liver RNA (NHP) [1, 12] [fold] | Fold Enrichment relative to AAV9, Brain (Mouse) (brain; mouse brain) [fold] | Fold Enrichment relative to AAV9, Brain (NHP) [1, 14] [fold] | Fold Enrichment relative to AAV9, DRG (NHP) ([1]; NHP DRG) [fold] | Fold Enrichment relative to AAV9, Heart (NHP) ([1]; NHP heart) [fold] | Fold Enrichment relative to AAV9, Liver DNA (NHP) ([1]; NHP liver, DNA) [fold] | Fold Enrichment relative to AAV9, Liver RNA (NHP) ([1]; NHP liver, RNA) [fold] | Fold Enrichment relative to AAV9, Muscle (NHP) ([1]; NHP muscle) [fold] | further results
KTENLSGSPHSKAQNQQT | 107.385 | 0.070 | 70.303 | 0.000 | 0.470 | 0.395 | 0.000 |  |  |  |  |  |  |  |  |  |  |  |  |  | 
KTENMSGSPHSKAQNQQT | 130.568 | 0.000 | 89.247 | 0.000 | 0.260 | 0.000 | 0.000 | 130.568 | 89.247 | 0.000 | 0.000 | 0.260 | 0.000 |  |  |  |  |  |  |  | Fold Enrichment relative to AAV9, Muscle (NHP) [1, 13]: 0.000 fold
KTENTSGSPHSKAQNQQT | 96.249 | 0.000 | 74.061 | 0.000 | 0.730 | 0.233 | 0.218 |  |  |  |  |  |  |  |  |  |  |  |  |  | 
KTENVSGSPHSKAQNQQT | 108.591 | 0.000 | 88.506 | 0.000 | 0.112 | 0.964 | 0.000 | 108.591 | 88.506 | 0.000 | 0.000 | 0.112 | 0.964 |  |  |  |  |  |  |  | Fold Enrichment relative to AAV9, Muscle (NHP) [1, 13]: 0.000 fold
KTEPMSGSPHSKAQNQQT |  |  |  |  |  |  |  |  |  |  |  |  |  | 126.322 | 50.960 | 0.203 | 0.000 | 0.415 | 1.816 | 0.000 | 
KTEPTSGSPHSKAQNQQT |  |  |  |  |  |  |  |  |  |  |  |  |  | 143.397 | 56.134 | 0.000 | 0.000 | 0.527 | 0.061 | 0.000 | 
KTEQTSGSPHSKAQNQQT |  |  |  |  |  |  |  |  |  |  |  |  |  | 59.360 | 56.683 | 0.000 | 0.045 | 0.430 | 0.792 | 0.000 | 
KTEQVSGSPHSKAQNQQT |  |  |  |  |  |  |  |  |  |  |  |  |  | 88.487 | 58.247 | 0.000 | 0.000 | 0.081 | 0.000 | 0.000 | 
KTERASGSPHSKAQNQQT | 115.550 | 0.000 | 103.669 | 0.000 | 0.070 | 0.127 | 0.000 | 115.550 | 103.669 | 0.000 | 0.000 | 0.070 | 0.127 |  |  |  |  |  |  |  | Fold Enrichment relative to AAV9, Muscle (NHP) [1, 13]: 0.000 fold
KTERGSGSPHSKAQNQQT |  |  |  |  |  |  |  |  |  |  |  |  |  | 85.368 | 53.475 | 0.000 | 0.030 | 0.175 | 1.416 | 0.000 | 
